The assay addresses MELK (maternal embryonic leucine zipper kinase) (Homo sapiens, UniProt Q14680). Nature of the assay: IMAP kinase assay, high-throughput screen followed by dose-response. It is filed as biochemical.

Sequence of MELK (maternal embryonic leucine zipper kinase) (Q14680 whole entry): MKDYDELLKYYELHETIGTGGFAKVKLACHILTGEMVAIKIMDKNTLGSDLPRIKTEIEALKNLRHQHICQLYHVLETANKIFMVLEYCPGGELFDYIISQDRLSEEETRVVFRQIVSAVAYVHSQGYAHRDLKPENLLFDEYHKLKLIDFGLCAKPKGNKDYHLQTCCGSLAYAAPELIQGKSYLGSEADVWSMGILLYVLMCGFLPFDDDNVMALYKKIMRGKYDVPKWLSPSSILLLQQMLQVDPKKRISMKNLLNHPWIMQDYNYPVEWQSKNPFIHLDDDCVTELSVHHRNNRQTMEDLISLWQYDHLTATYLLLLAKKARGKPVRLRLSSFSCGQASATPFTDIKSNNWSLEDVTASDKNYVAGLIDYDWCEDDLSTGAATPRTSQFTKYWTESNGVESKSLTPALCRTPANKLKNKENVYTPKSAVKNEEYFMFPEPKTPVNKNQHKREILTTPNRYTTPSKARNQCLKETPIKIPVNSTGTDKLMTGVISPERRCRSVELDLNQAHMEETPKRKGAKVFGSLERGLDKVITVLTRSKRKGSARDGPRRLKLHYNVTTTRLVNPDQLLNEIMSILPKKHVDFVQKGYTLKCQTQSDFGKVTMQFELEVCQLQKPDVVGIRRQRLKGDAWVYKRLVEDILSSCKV

`CCOC(=O)c1ccc2ncc(C(=O)OCC)c(Nc3ccc(NC(C)=O)cc3)c2c1` [compound 1, diethyl 4-(4-acetamidophenylamino) quinoline-3,6-dicarboxylate] returned an IC50 of 4.8 µM.

Source of the values: publication PMC3681500, “Development of an orally-administrative MELK-targeting inhibitor that suppresses the growth of various types of human cancer” (Oncotarget, 2012).
